# ChEMBL document CHEMBL1154453, “Synthesis and aldose reductase inhibitory activity of some new chromonyl-2,4-thiazolidinediones” (Eur J Med Chem, 2008)
# Columns and labels:
# [1] = molecular target: Aldo-keto reductase family 1 member B1 (Rattus norvegicus) (UniProt P07943); assay: (§1) Inhibition of aldose reductase in Albino rat kidney assessed as decrease in NADPH concentration by spectrophotometrically
# [2] = molecular target: Aldo-keto reductase family 1 member B1 (Rattus norvegicus, UniProt P07943); assay: as §1
Compound,inhibition [1],IC50 [2]
O=C1NC(=O)/C(=C\c2coc3ccccc3c2=O)S1,42.4%,
Cc1cc(C)c2occ(/C=C3/SC(=O)NC3=O)c(=O)c2c1,49.7%,
O=C1NC(=O)/C(=C\c2coc3ccc([N+](=O)[O-])cc3c2=O)S1,46.7%,
O=C(O)CN1C(=O)S/C(=C/c2coc3ccc([N+](=O)[O-])cc3c2=O)C1=O,82.4%,261 nM
Cc1ccc2occ(/C=C3/SC(=O)NC3=O)c(=O)c2c1,52.7%,944 nM
CC(C)c1ccc2occ(/C=C3/SC(=O)NC3=O)c(=O)c2c1,50.8%,955 nM
CCOC(=O)CN1C(=O)S/C(=C/c2coc3c(C)cc(C)cc3c2=O)C1=O,0%,
Cc1cc(C)c2occ(/C=C3/SC(=O)N(CC(=O)O)C3=O)c(=O)c2c1,68.6%,678 nM
CC(C)c1ccc2occ(/C=C3/SC(=O)N(CC(=O)O)C3=O)c(=O)c2c1,77.3%,522 nM

# Other lines, results leading:
inhibition [1],IC50 [2],Compound
0%,,CCOC(=O)CN1C(=O)S/C(=C/c2coc3ccc(C)cc3c2=O)C1=O
49.4%,,O=C(O)CN1C(=O)S/C(=C/c2coc3ccccc3c2=O)C1=O
8.18%,,CCOC(=O)CN1C(=O)S/C(=C/c2coc3ccccc3c2=O)C1=O
9.46%,,CCOC(=O)CN1C(=O)S/C(=C/c2coc3ccc(C(C)C)cc3c2=O)C1=O
61.2%,805 nM,Cc1ccc2occ(/C=C3/SC(=O)N(CC(=O)O)C3=O)c(=O)c2c1
